Experiments:
A. succinogenes 130Z = assay: Antibiotic minimum inhibitory concentrations: growth of A. succinogenes 130Z in liquid medium A with antibiotics; assay type: cell-based, Actinobacillus succinogenes; conditions: 37° C.; for OD660 after 7 days culture: 5 μg/ml antibiotic; for antibiotic concentration in whose presence no growth was detected / antibiotic concentration in whose presence very slow growth was observed / antibiotic concentration in whose presence A. succinogenes 130Z grew perfectly well: 7 days, OD660
Protocol: Antibiotic minimum inhibitory concentrations. To determine the sensitivity of A. succinogenes 130Z to antibiotics, the growth of A. succinogenes 130Z was tested in medium A (liquid medium) containing a series of antibiotics commonly used in bacteriology. One ml of 130Z preculture was inoculated into 9 ml of medium A containing each antibiotic and incubated at 37° C. for 7 days. Cell growth was followed by measuring OD660.
Resistance of A. succinogenes to antibiotics. A. succinogenes 130Z grew perfectly well in the presence of 50 μg/ml kanamycin or 30 μg/ml streptomycin. […] No growth was detected in the presence of 10 μg/ml ampicillin, 1 μg/ml chloramphenicol, 5 μg/ml tetracycline, or 10 μg/ml erythromycin. A. succinogenes is sensitive to low concentrations of ampicillin, chloramphenicol, erythromycin, and tetracycline, so the corresponding resistance genes (i.e., Amp^R, Cm^R, Tet^R, and Ery^R) could be used as selection markers on plasmids used to transform A. succinogenes. We discovered that the Tn3 Amp^R gene carried by pGZRS-19 is naturally expressed in A. succinogenes.

[1] = system: A. succinogenes 130Z cells harboring pLGZ921 and pLGZ922; assay: Growth of plasmid-harboring A. succinogenes 130Z on TS-agar plates with tetracycline or chloramphenicol; assay type: cell-based, Actinobacillus succinogenes
Source text: Expression of Tet^R and Cm^R in A. succinogenes. We need several markers to conveniently engineer A. succinogenes. One can be used to label a gene deletion, while another one can be used to select for the maintenance of a recombinant gene on a plasmid replicon. To determine whether, once expressed, Cm^R and Tet^R could be used as selective markers in A. succinogenes, the Tn9 Cm^R and Tn10 Tet^R genes were cloned into pLGZ920 under control of the A. succinogenes pckA promoter, yielding plasmids pLGZ921 and pLGZ922, respectively. After electroporation, A. succinogenes 130Z cells harboring pLGZ921 and pLGZ922 were spread on TS-agar (30 g/l TS, 10 g/l glucose) plates containing variable amounts of tetracycline and chloramphenicol (FIG. 9). Strains […] plated on chloramphenicol plates and […] plated on tetracycline plates were used as the negative controls. […] In contrast, strain […] grew on plates containing up to 5.0 μg/ml tetracycline. Chloramphenicol-sensitive 130Z(pLGZ921) strain grew on plates containing up to 0.4 μg/ml […], but not on plates containing higher chloramphenicol concentrations. Strain […] grew on plates containing up to 5.0 μg/ml chloramphenicol.

Compound | OD660 after 7 days culture (A. succinogenes 130Z) | antibiotic concentration in whose presence no growth was detected (A. succinogenes 130Z) [µg/mL] | antibiotic concentration in whose presence very slow growth was observed (A. succinogenes 130Z) [µg/mL] | antibiotic concentration in whose presence A. succinogenes 130Z grew perfectly well (A. succinogenes 130Z) [µg/mL] | antibiotic concentration up to which strain 130Z(pLGZ922) grew on plates [1]
CC1(C)S[C@@H]2[C@H](NC(=O)[C@H](N)c3ccccc3)C(=O)N2[C@H]1C(=O)O [ampicillin] | approximately 0.05 | 10 | 5 | – | –
O=C(N[C@H](CO)[C@H](O)c1ccc([N+](=O)[O-])cc1)C(Cl)Cl [chloramphenicol] | – | 1 | – | – | –
CC[C@H]1OC(=O)[C@H](C)[C@@H](O[C@H]2C[C@@](C)(OC)[C@@H](O)[C@H](C)O2)[C@H](C)[C@@H](O[C@@H]2O[C@H](C)C[C@H](N(C)C)[C@H]2O)[C@](C)(O)C[C@@H](C)C(=O)[C@H](C)[C@@H](O)[C@]1(C)O [erythromycin] | approximately 0.05 | 10 | 5 | – | –
NC[C@H]1O[C@H](O[C@H]2[C@H](O)[C@@H](O[C@H]3O[C@H](CO)[C@@H](O)[C@H](N)[C@H]3O)[C@H](N)C[C@@H]2N)[C@H](O)[C@@H](O)[C@@H]1O [kanamycin] | – | – | – | 50 | –
[H]/N=C(/N)N[C@H]1[C@H](O)[C@@H](O)[C@H](O[C@@H]2O[C@@H](C)[C@](O)(C=O)[C@H]2O[C@@H]2O[C@@H](CO)[C@H](O)[C@@H](O)[C@@H]2NC)[C@@H](N/C(N)=N\[H])[C@@H]1O [streptomycin] | – | – | – | 30 | –
CN(C)[C@@H]1C(O)=C(C(N)=O)C(=O)[C@@]2(O)C(O)=C3C(=O)c4c(O)cccc4[C@@](C)(O)[C@H]3C[C@@H]12 [tetracycline] | – | 5 | – | – | up to 1.0 μg/ml

Reference: patent US7195918B2 (priority 2003, dated 2007)
